“Also recorded” adds a separate entry of the source. Where two headings read alike, the source gives them in different places.
What was measured:
[1] = test system: renal allograft; conditions: cited from earlier work
[2] = test system: intimal thickening of BN orthotopic femoral arterial grafts; conditions: oral 10 mg/kg/day; cited from earlier work
[3] = test system: SLE in MRL/lpr mice; conditions: cited from earlier work
[4] = test system: epidermal growth factor (EGF)-dependent cell growth; conditions: cited from earlier work
[5] = test system: EGF receptor kinase; conditions: cited from earlier work
[6] = test system: cGvH disease or SLE; conditions: mouse, U.S. Pat. No. 4,965,276; cited from earlier work
[7] = test system: intimal thickening in balloon-injured carotids; conditions: 20 mg/kg daily from day 3 pre-transplant to day 13 post-transplant; cited from earlier work
[8] = to open-ring form A771726; cited from earlier work
[9] = cited from earlier work
[10] = test system: rejection of concordant hamster to rat renal xenografts; assay: hamster to rat concordant renal xenograft rejection; type: in vivo, Golden Syrian hamster donor, LEW rat recipient
Procedure: Like Example 2, this experiment was also designed to determine a dose response curve using leflunomide as monotherapy, CsA as monotherapy, and both used as combination therapy. End points used to assess efficacy were duration of time to rejection, mortality, and histologic differences among the treatment groups.
Golden Syrian hamsters and LEW rats were maintained as in Example 2, and leflunomide and CsA were administered in the same manner as in Example 2. Renal transplantation was performed using cuffs of aorta and vena cava for vascular anastomosis; the donor ureter bearing a button of bladder was connected to the recipient bladder. Both recipient kidneys were removed at the time of transplantation.
Leflunomide monotherapy was dosed at 2.5, 5, 10 and 15 mg/kg. CsA monotherapy at 10 mg/kg was given to one group. Two groups were given combination therapy of leflunomide 5 mg/kg with CsA 5 mg/kg, and leflunomide 5 mg/kg with CsA 10 mg/kg. Serum creatinine was measured at 7 days and 21 days. Rejection was defined as death of the animal from uremia with histology consistent with immune-mediated injury.
At the death of the animal, the kidney graft was removed, fixed in formalin, and stained with hematoxylin and eosin to determine the extent of pathological change. IgG and IgM staining was also done on formalin-fixed tissue, using ABC Technique as for Example 2.

[11] = test system: xenophile antibodies to human peripheral blood lymphocytes (PBL); conditions: cited from earlier work
[12] = test system: platelet derived growth factor-receptor (PDGFR) tyrosine kinase; conditions: cited from earlier work
[13] = test system: heterotopic small intestinal transplantation; conditions: continuous infusion pump, cited from earlier work
[14] = test system: skin grafts; conditions: cited from earlier work
[15] = test system: glomerulonephritis; conditions: oral 2 mg/kg/day, prophylactic or therapeutic; cited from earlier work
[16] = test system: anti-donor specific IgM and IgG; assay: anti-donor specific IgM and IgG titers by flow cytometry, cardiac xenografts; type: in vivo, rat; conditions: leflunomide alone
Procedure: Serum samples were obtained from the animals by drawing 0.2 ml of blood from the tail vein at two day intervals, for the first eight days after transplantation, and then at seven day intervals after day 14. Serum samples were stored at -80° C. The anti-donor specific IgM and IgG titers were measured using cervical lymph nodes from hamsters as target cells for flow cytometry. Lymphocytes obtained from the lymph nodes were washed with PBS and suspended at a concentration of 10^7 cells/ml. Aliquots of 50 μl containing ~5×10^5 lymphocytes were incubated with 50 μl of diluted sera (diluted 1:25 in phosphate buffered saline) for 30 minutes at 4° C. and then washed twice in 1 ml of PBS. IgM and IgG antibodies were stained by incubating the washed cells for 30 minutes at 4° C. with 50 μl of PBS containing a mixture of labeled goat antibodies specific for rat IgG and rat IgM (Jackson Immunoresearch Labs, Westgrove, Pa.). After staining, the cells were washed twice, fixed in 1% formalin and analyzed on the BPICS-C flow cytometry (Coulter Company), according to Williams et al., Transplantation, 57:1223-1231 (1994).

[17] = test system: rat adjuvant arthritis models and rat allergic encephalitis model; conditions: cited from earlier work
[18] = test system: cardiac allograft; conditions: cited from earlier work
[19] = test system: human T-cell; conditions: stimulated by allogeneic lymphocytes, anti-CD3 or anti-CD28 with PMA, or IL-2 or IL-2 with PMA; cited from earlier work
[20] = 2.5 mg/kg or 5 mg/kg leflunomide
[21] = 10 mg/kg and 15 mg/kg leflunomide

Cc1oncc1C(=O)Nc1ccc(C(F)(F)F)cc1 [leflunomide, N-(4-trifluoromethylphenyl)-5-methylisoxazol-4-carboxamide]
survival ([1]; 5 or 10 mg/kg/day by gavage for 30 days): more than 60 days
protection ([1]; BN-LEW renal transplant): very similar to the protection attainable with CsA treatment
intimal thickening [2]: reduced intimal thickening compared to untreated controls
ability to inhibit SLE relative to Cyclosporine A ([3]; MRL/lpr mice): equal or superior to Cyclosporine A (CsA) in ability to inhibit SLE
disease progression, lymphocyte accumulation, T-cell ratio ([3]; MRL/lpr mice): stops disease progression and prevents the development of glomerulonephritis
disease progression, lymphocyte accumulation, T-cell ratio ([3]; MRL/lpr mice, listed as Leflunomide): suppresses the intense accumulation of lymphocytes in the lymph nodes and spleen of these mice, restores the T-cell helper/suppressor ratio to normal values, and restores the depressed proliferative response of lymphocytes and macrophages
animals still alive ([3]; at the end of 10 weeks, mice with elevated urine protein): 90%
inhibition of EGF-dependent cell growth [4]: capable of inhibiting epidermal growth factor (EGF)-dependent cell growth
inhibition of EGF receptor kinase [5]: inhibits the intrinsic EGF receptor kinase
glomerulonephritis, anti-dsDNA titer, GvH index, T-lymphocyte proliferative ability [6]: prevented development of glomerulonephritis, reduced anti-dsDNA titer, decreased the GvH index (a measure of relative spleen enlargement), and improved the diminished proliferative ability of T-lymphocytes
inhibition of development of cGvH disease or SLE [6]: effective in inhibiting the development of cGvH disease or SLE
intimal thickening [7]: significantly reduced intimal thickening in balloon-injured carotids
conversion after administration [8]: rapidly convened to its active open-ring form
toxicity ([9]; animal studies, extremely high doses): liver and cardiac toxicity
tolerability ([9]; animals and man): well tolerated in animals and man
effect on survival [10, 20]: did not significantly increase survival time
histopathology [10, 20]: did not significantly alter histopathology compared to controls
mean serum creatinine values vs controls [10, 20]: slightly reduced
effect on survival [10, 21]: statistically significant improvement in survival
histology [10, 21]: the histology did not show significant rejection
Mean Creatinine Day 7 ([10]; Lef 2.5 mg/kg, group 2): 3.6
Mean Survival ± S.D. ([10]; Lef 2.5 mg/kg, group 2): 8.5 ± 2.1
Mean Creatinine Day 7 ([10]; Lef 5.0 mg/kg, group 3): 2.7
Mean Survival ± S.D. ([10]; Lef 5.0 mg/kg, group 3): 7.0 ± 2.6
Mean Creatinine Day 7 ([10]; Lef 10 mg/kg, group 4): 1.6
Mean Survival ± S.D. ([10]; Lef 10 mg/kg, group 4): 17.0 ± 8.9
Mean Creatinine Day 7 ([10]; Lef 15 mg/kg, group 5): 1.2
Mean Survival ± S.D. ([10]; Lef 15 mg/kg, group 5): 13.2 ± 7.1
Graft Survival for Each Subject ([10]; Lef 15 mg/kg, group 5, listed as Lef): 17,24
terminal serum creatinine ([10]; appropriate dose of leflunomide, most of the animals): less than 2.5
pre-existing, natural xenophile antibodies ([11]; 10 mg/kg/day for 10 days): decrease in pre-existing, natural xenophile antibodies
xenophile antibody production ([11]; 3 or 10 mg/kg/day from day -4 to day +10, sensitized rats): inhibited xenophile antibody production in a dose-dependent manner
inhibition of PDGFR tyrosine kinase activity [12]: inhibits the intrinsic EGF receptor kinase as well as other kinases such as platelet derived growth factor-receptor (PDGFR) tyrosine kinase activity
survival of recipients ([13]; 7 days): 29.3 ± 13.8 days
survival of recipients ([13]; 14 days): 38.8 ± 11.5 days
skin graft survival time vs untreated ([14]; 2.5 to 20 mg/kg by gavage for 10 days): more than doubled graft survival time compared to untreated animals
skin graft survival, delayed treatment ([14]; started five to ten days after grafting): achieved prolongation of skin graft survival
effect on glomerulonephritis [15]: effective in both preventing and curing glomerulonephritis; also recorded: significant decrease in total urinary protein, plasma cholesterol and fibrinogen, as well as decreased deposition of fibrin, immunoglobulin G and complement C3
IgG levels [16]: IgG levels remained at baseline
IgM titres [16]: delayed and slowed the rise of IgM titres, but did not completely suppress IgM rise
anti-inflammatory activity and toxicity ([17]; U.S. Pat. No. 4,351,841): superior anti-inflammatory activity and decreased toxicity
inhibition of immunopathological processes ([17]; two rat adjuvant arthritis models and a rat allergic encephalitis model): inhibit immunopathological processes
graft survival vs controls ([18]; 0.63 to 10 mg/kg/day for 7 days): significantly prolonged graft survival compared to controls
animals with indefinite graft survival (>100 days) ([18]; 21 days, leflunomide 5 mg/kg/day): three of six animals
inhibition of human T-cell proliferation [19]: inhibit human T-cell proliferation

— patent publication US5688824A, “Use of leflunomide to prevent or control xenograft rejection” (priority 1996, dated 1997)
